Tests used:
[1] = target: T1, 5-hydroxytryptamine receptor 2B (Homo sapiens, UniProt P41595); type: functional, cell-based
[2] = target: Gamma-aminobutyric acid receptor subunit alpha-1 (Rattus norvegicus, UniProt P62813); type: functional
B2 bradykinin receptor = target: T2, B2 bradykinin receptor (Homo sapiens, UniProt P30411)
T2 sequence (P30411 whole entry): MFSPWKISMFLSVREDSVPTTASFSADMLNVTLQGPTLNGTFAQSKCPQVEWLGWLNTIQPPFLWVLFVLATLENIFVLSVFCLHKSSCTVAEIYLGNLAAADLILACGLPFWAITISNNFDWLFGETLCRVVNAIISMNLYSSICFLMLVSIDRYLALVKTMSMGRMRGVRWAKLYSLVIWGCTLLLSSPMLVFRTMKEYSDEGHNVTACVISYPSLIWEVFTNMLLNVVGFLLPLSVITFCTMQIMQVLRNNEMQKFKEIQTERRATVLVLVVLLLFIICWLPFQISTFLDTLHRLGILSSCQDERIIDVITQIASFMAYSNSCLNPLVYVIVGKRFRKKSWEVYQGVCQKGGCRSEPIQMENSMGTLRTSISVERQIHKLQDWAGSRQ

[3] = target: T3, 5-hydroxytryptamine receptor 1A (Homo sapiens, UniProt P08908); type: functional, cell-based
T3 sequence (P08908 whole entry): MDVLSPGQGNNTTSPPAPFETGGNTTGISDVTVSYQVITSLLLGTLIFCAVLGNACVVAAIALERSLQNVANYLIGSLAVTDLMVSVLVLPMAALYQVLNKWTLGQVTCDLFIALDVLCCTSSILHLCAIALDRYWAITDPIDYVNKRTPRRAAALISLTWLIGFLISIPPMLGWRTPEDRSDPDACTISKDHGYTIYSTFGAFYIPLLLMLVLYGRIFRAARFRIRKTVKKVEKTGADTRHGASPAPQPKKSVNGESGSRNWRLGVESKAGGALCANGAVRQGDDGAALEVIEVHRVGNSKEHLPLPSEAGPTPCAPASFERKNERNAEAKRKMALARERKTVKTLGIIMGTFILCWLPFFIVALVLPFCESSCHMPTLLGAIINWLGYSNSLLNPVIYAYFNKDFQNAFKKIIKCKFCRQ

[4] = target: Beta-1 adrenergic receptor (Homo sapiens, UniProt P08588); type: functional
Vasopressin V1a receptor = Vasopressin V1a receptor (Homo sapiens, UniProt P37288)
Histamine H1 receptor = Histamine H1 receptor (Homo sapiens, UniProt P35367)
[5] = target: T4, Muscarinic acetylcholine receptor M2 (Homo sapiens, UniProt P08172); type: functional, cell-based
T4 sequence (P08172 whole entry): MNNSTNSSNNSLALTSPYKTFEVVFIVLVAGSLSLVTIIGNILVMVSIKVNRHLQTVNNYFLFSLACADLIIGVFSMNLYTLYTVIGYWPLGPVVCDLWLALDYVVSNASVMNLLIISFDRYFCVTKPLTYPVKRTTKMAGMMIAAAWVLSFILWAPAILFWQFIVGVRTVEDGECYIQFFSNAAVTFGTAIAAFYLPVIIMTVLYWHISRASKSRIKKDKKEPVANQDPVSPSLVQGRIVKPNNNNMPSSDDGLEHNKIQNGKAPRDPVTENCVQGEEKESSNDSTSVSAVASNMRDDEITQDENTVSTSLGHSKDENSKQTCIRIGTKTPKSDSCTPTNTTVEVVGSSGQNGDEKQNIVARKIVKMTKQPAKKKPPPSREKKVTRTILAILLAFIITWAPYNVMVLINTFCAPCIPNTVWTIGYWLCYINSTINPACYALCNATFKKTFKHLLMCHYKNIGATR

[6] = target: T5, Alpha-2A adrenergic receptor (Homo sapiens, UniProt P08913); type: functional, cell-based
T5 sequence (P08913 whole entry): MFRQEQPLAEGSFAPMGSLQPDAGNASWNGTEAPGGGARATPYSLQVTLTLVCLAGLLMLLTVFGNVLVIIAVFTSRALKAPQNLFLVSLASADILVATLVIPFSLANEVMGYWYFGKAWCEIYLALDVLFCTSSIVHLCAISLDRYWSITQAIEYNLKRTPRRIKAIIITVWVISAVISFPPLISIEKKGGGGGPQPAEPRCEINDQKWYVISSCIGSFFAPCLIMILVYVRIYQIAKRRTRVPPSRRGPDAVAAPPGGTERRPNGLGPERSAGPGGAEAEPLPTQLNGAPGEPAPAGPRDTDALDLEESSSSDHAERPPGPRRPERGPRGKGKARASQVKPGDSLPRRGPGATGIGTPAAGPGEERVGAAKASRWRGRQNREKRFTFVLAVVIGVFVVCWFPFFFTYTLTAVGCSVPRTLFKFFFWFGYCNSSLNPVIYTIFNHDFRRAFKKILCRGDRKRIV

[7] = target: Voltage-dependent L-type calcium channel subunit alpha-1C (Rattus norvegicus, UniProt P22002); type: functional
[8] = target: 3',5'-cyclic-AMP phosphodiesterase 4D (Homo sapiens, UniProt Q08499); type: functional
[9] = target: T1, 5-hydroxytryptamine receptor 2B; type: functional, cell-based; remark: listed apart in the source
Estrogen receptor = target: T6, Estrogen receptor (Homo sapiens, UniProt P03372)
T6 sequence (P03372 whole entry): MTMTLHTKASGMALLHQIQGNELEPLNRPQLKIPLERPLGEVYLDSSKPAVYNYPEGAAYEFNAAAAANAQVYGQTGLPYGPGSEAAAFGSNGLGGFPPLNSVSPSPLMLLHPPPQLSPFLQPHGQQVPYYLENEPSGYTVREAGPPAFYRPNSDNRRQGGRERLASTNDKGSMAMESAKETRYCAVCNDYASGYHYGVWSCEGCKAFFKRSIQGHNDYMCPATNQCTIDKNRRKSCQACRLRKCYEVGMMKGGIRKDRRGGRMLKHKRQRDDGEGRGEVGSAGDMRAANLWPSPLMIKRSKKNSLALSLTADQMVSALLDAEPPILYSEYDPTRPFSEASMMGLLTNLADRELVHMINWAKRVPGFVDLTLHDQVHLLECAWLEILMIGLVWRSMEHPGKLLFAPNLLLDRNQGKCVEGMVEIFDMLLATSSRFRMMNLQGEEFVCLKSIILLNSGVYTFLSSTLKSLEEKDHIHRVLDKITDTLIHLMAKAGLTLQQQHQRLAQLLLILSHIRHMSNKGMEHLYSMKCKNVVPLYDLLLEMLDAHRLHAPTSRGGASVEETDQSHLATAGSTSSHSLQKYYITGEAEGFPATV

Cannabinoid receptor 1 = Cannabinoid receptor 1 (Homo sapiens, UniProt P21554); type: functional, cell-based
Further: assay procedure not described here.

Sequence of Cannabinoid receptor 1 (P21554 whole entry): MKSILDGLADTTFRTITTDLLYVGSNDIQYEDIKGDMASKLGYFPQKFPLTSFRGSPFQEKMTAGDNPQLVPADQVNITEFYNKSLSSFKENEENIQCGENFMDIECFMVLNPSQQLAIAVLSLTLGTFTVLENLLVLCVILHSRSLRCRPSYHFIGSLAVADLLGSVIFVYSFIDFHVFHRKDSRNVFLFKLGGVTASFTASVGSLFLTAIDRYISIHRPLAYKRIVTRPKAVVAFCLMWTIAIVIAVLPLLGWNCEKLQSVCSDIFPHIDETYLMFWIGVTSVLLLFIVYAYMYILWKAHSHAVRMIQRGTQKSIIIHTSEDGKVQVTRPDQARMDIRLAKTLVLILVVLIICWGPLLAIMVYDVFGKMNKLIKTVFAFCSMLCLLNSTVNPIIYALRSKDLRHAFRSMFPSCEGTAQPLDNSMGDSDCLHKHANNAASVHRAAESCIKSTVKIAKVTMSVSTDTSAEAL
Sequence of Beta-1 adrenergic receptor (P08588 whole entry): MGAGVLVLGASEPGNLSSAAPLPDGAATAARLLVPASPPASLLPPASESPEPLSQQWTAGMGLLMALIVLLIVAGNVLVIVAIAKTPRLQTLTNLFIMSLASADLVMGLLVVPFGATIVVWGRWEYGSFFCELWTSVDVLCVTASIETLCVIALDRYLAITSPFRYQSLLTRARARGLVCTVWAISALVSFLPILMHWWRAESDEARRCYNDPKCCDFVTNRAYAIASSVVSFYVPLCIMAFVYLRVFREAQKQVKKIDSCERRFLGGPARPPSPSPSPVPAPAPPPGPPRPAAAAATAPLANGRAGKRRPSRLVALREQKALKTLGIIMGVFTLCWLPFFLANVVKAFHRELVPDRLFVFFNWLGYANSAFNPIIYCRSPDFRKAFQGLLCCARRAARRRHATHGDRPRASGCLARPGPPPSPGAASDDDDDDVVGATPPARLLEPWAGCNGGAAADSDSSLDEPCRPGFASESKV
T1 sequence (P41595 whole entry): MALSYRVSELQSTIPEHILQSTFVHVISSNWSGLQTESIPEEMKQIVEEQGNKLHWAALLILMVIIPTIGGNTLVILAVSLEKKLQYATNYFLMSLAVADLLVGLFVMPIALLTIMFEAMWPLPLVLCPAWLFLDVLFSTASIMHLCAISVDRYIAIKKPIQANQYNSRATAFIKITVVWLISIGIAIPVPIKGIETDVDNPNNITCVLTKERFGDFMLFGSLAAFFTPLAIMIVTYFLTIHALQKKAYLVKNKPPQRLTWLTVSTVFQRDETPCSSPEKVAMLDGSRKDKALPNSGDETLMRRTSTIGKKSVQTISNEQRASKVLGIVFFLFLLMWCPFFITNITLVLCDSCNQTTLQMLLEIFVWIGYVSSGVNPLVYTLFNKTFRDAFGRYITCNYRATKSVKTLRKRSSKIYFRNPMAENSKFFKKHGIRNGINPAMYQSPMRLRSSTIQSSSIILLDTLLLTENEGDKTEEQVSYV
Sequence of 3',5'-cyclic-AMP phosphodiesterase 4D (Q08499 whole entry): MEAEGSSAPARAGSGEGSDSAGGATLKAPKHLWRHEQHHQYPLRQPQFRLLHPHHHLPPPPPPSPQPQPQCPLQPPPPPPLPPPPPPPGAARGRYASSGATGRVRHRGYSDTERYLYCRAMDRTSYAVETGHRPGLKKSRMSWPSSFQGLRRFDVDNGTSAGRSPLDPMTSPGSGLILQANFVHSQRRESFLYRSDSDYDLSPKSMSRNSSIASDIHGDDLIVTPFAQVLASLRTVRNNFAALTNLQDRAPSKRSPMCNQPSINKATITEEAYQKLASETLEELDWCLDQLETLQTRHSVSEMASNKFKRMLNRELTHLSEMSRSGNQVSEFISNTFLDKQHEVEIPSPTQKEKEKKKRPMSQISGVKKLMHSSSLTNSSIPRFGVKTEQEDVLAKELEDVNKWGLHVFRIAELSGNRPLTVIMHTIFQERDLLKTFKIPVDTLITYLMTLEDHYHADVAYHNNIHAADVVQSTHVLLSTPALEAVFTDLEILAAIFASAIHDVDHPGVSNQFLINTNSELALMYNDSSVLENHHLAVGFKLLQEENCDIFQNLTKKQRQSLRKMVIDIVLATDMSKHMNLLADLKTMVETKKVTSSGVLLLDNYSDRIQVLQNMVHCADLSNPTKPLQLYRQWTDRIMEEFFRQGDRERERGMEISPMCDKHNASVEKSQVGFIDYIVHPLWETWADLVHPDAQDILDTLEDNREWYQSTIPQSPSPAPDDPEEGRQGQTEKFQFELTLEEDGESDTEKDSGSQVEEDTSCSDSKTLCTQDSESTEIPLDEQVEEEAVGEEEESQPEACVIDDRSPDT
Sequence of Gamma-aminobutyric acid receptor subunit alpha-1 (P62813 whole entry): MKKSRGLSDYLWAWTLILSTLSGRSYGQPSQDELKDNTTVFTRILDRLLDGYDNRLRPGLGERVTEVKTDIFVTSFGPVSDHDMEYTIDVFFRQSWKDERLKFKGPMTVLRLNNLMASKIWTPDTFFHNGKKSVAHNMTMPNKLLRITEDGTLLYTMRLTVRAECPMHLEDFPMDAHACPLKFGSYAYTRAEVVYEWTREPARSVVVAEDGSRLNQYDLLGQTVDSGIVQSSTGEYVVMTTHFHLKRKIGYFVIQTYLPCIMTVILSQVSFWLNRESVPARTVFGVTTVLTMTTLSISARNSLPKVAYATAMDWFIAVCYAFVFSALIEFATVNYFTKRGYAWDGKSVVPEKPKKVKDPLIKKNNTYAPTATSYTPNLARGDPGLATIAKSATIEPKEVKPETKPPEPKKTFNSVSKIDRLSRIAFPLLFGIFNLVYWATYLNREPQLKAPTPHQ
Sequence of Voltage-dependent L-type calcium channel subunit alpha-1C (P22002 whole entry): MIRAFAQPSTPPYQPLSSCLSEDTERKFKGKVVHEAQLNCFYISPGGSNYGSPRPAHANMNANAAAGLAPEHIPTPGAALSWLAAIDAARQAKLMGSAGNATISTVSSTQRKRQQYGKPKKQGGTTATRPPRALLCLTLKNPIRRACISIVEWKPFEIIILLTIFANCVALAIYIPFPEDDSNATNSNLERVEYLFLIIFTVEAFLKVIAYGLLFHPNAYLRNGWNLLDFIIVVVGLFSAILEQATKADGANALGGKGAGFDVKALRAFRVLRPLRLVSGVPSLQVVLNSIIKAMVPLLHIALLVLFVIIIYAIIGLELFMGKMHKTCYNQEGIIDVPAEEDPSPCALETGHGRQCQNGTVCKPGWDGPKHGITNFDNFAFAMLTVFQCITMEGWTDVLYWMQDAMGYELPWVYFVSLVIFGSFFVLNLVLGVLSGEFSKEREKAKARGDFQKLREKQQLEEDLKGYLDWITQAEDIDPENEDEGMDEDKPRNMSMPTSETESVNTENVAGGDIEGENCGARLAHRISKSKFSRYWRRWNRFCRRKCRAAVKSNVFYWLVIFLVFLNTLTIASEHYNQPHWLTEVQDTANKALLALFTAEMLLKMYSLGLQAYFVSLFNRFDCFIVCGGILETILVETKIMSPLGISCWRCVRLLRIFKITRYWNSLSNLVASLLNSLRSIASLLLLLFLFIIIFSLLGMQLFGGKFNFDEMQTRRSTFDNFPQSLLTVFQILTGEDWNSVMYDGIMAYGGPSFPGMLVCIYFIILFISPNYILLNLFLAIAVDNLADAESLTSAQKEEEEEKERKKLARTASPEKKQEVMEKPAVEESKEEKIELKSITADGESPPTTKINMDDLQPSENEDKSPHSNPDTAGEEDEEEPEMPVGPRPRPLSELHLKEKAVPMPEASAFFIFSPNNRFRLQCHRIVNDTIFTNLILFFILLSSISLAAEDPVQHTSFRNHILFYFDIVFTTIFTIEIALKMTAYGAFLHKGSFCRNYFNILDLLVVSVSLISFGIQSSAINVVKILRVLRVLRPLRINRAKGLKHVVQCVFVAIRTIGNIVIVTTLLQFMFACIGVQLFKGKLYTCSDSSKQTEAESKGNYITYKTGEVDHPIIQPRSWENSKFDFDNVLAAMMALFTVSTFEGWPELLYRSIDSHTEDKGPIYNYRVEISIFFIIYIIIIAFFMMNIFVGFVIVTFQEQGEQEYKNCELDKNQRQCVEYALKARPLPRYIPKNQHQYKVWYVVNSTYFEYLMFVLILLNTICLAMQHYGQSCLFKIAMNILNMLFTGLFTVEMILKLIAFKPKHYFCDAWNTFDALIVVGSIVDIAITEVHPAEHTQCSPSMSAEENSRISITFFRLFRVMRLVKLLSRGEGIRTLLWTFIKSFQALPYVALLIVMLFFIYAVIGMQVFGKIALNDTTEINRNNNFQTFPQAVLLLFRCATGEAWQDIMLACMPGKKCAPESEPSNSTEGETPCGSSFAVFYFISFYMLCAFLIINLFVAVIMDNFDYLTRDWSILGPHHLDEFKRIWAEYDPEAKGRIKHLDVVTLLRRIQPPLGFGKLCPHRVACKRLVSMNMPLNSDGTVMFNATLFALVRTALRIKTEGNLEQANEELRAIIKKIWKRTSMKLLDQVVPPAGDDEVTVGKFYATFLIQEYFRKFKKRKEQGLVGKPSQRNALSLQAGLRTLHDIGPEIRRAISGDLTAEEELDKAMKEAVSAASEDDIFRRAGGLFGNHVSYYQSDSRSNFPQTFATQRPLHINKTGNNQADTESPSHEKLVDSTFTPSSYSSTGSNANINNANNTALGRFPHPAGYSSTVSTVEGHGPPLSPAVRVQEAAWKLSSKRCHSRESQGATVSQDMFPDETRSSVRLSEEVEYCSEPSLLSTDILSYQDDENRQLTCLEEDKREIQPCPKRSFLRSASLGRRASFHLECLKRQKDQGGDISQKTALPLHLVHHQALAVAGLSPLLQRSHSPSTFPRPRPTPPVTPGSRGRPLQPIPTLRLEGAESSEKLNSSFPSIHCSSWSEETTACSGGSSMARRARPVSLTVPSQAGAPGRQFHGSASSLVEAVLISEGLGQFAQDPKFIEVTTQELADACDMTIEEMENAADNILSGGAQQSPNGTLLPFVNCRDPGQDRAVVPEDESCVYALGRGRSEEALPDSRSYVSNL

| Compound | AC50 [1] [µM] | AC50 [2] [µM] | AC50 (B2 bradykinin receptor) [µM] | AC50 [3] [µM] | AC50 [4] [µM] | AC50 (Vasopressin V1a receptor) [µM] | AC50 (Histamine H1 receptor) [µM] | AC50 [5] [µM] | AC50 [6] [µM] | AC50 [7] [µM] | AC50 [8] [µM] | AC50 [9] [µM] | AC50 (Estrogen receptor) [µM] | AC50 (Cannabinoid receptor 1) [µM] |
| --- | --- | --- | --- | --- | --- | --- | --- | --- | --- | --- | --- | --- | --- | --- |
| CCC1(CC)C(=O)NC(=O)N(C)C1=O [METHARBITAL] | > 10 | > 10 | > 10 | > 10 | > 10 | > 10 | > 10 | > 10 | > 10 | > 10 | > 30 | > 10 | > 10 |  |
| COC(=O)[C@H]1[C@H]2C[C@@H]3c4[nH]c5ccccc5c4CCN3C[C@H]2C[C@@H](OC(=O)c2cc(OC)c(OC)c(OC)c2)[C@@H]1OC [DESERPIDINE] | > 10 | > 10 | > 30 | > 10 | > 10 | > 30 | > 10 | > 10 | > 10 | > 10 | > 30 | > 10 | > 30 |  |
| O=C(O)c1ccc2nc(-c3cc(Cl)cc(Cl)c3)oc2c1 | > 30 | > 30 | > 30 | > 30 | > 30 | > 30 | > 30 | > 30 | > 30 | > 30 | 10.3 | > 30 | > 30 |  |
| CC(=O)N1CCN(c2ccc(OCC3COC(Cn4ccnc4)(c4ccc(Cl)cc4Cl)O3)cc2)CC1 (configuration not stated) [KETOCONAZOLE] | 15 | > 10 | > 10 | > 10 | > 10 | > 10 |  |  | > 10 | > 10 | > 10 | > 10 | > 10 | > 30 |
| OCC(O)COc1ccc(Cl)cc1 (configuration not stated) | > 10 | > 10 | > 10 | > 10 | > 10 | > 10 | > 10 | > 10 | > 10 | > 10 | > 30 | > 10 | > 10 |  |
| O=C(O[C@H]1C[N+]2(CCCOc3ccccc3)CCC1CC2)C(O)(c1cccs1)c1cccs1 [ACLIDINIUM BROMIDE] |  | > 10 | > 30 |  | > 10 | > 10 | 4.5 |  |  | > 10 | > 30 |  | > 30 |  |
| Cc1cnc(Nc2ccc(OCCN3CCCC3)cc2)nc1Nc1cccc(S(=O)(=O)NC(C)(C)C)c1 [FEDRATINIB] | > 10 | > 10 | > 30 |  | > 10 | > 30 | > 10 | > 10 | > 10 | > 10 | 0.22 | > 10 | > 30 |  |
| Cc1nnc2n1-c1ccc(Cl)cc1C(c1ccccc1)=NC2 [ALPRAZOLAM] | > 10 | 0.0042 | > 30 | > 10 | > 10 | > 10 |  | > 10 | > 10 | > 10 | > 30 | > 10 | > 30 | > 30 |
| CCOC(=O)C1=C(C)NC(C)=C(C(=O)OC)C1c1cccc(Cl)c1Cl (configuration not stated) [FELODIPINE] | > 10 | > 10 | > 30 | > 10 | > 10 | > 10 |  | > 10 | > 10 | 0.0204 | 3.2 | > 10 | > 30 | > 30 |
| COc1ccc2c3c1O[C@H]1C(=O)CC[C@H]4[C@@H](C2)N(C)CC[C@]314 [HYDROCODONE] | > 10 | > 10 | > 30 | > 10 | > 10 | > 10 | > 10 | > 10 | > 10 | > 10 | 9.5 | > 10 | > 30 |  |
| CN1C2CCCC1CC(NC(=O)c1nn(C)c3ccccc13)C2 (configuration not stated) [GRANISETRON] | > 10 | > 10 | > 30 | > 10 | > 10 | > 10 |  | > 10 | > 10 | > 10 | > 10 | > 10 | > 30 | > 30 |
| O=C(O)CCCC[C@@H]1SC[C@@H]2NC(=O)N[C@@H]21 [BIOTIN] | > 10 |  | > 10 | > 10 |  |  | > 10 | > 10 | > 10 | > 10 | > 30 | > 10 | > 10 |  |
| CC(C(=O)O)c1ccc(C(=O)c2ccccc2)s1 (configuration not stated) [TIAPROFENIC ACID] | > 10 | > 30 | > 10 | > 10 | > 10 | > 10 |  | > 10 | > 10 | > 10 | > 30 | > 10 | > 10 | > 30 |
| CC(C)CN(C[C@@H](O)[C@H](Cc1ccccc1)NC(=O)O[C@H]1CCOC1)S(=O)(=O)c1ccc(N)cc1 | > 10 | > 10 | > 30 | > 10 | > 10 | > 30 |  | > 10 | > 10 | > 10 | > 30 | > 10 | > 10 | 12 |

Source: ChEMBL document CHEMBL5291721, “A preclinical secondary pharmacology resource illuminates target-adverse drug reaction associations of marketed drugs” (Nat Commun, 2023)
